IC50 data for two compounds are collected here from patent US20120135451A1, “Method and Apparatus for Evaluation of Toxicity” (BIOPHOS SA, priority 2009, published 2012).

The assay deals with boar spermatozoa. In words: Toxicity evaluation by motility of boar spermatozoa (Qualisperm). It is filed as cell-based. Conditions: 30 minutes incubation, around 60 million/ml boar spermatozoa. As to the method: Quadruple samples of each test compound were prepared in varying concentrations by serial dilution in a 96 microwell-plate by serial dilution into XCell with DMSO. Equal volumes (50 μl) of boar spermatozoa in a concentration of around 60 million/ml were added to all sample solutions. Subsequently, the microwell plate was shaken and incubated for 30 minutes. The dosing was performed by using an automated TECAN® robot. After the incubation the sample solutions were pipetted on a Leja® slide and the motility of the spermatozoa was analysed using a Qualisperm® apparatus from Biophos AG. A dose response curve was obtained where % motile spermatozoa (all the moving spermatozoa), % progressive spermatozoa (share of spermatozoa above a pre-determined threshold, here: above 25 μm/sec), or mean speed of total motile spermatozoa was plotted as a function of the logarithmic concentration of the test compound expressed in mM. From the dose curve IC50 values were calculated.

Where two headings read alike, the source gives them in different places.

On to `CC(C)C(=O)Nc1ccc([N+](=O)[O-])c(C(F)(F)F)c1` [Flutamide], for which the IC50 worked out at 95 µM (0.5 h, % motile spermatozoa (all moving spermatozoa), read-out: IC50 % motille); 62 µM (0.5 h, % progressive spermatozoa (above 25 μm/sec), read-out: IC50 % progressiv); 72 µM (0.5 h, mean speed of total motile spermatozoa, read-out: IC50 mean speed).
`CC(=O)N1CCN(c2ccc(OCC3COC(Cn4ccnc4)(c4ccc(Cl)cc4Cl)O3)cc2)CC1` (stereo not drawn) [Ketokonazole, Ketoconazole]: the IC50 (% motile spermatozoa (all moving spermatozoa), read-out: IC50 % motille) stood at 209 µM; the 50% inhibitory concentration (IC50) (% progressive spermatozoa (above 25 μm/sec), read-out: IC50 % progressiv) amounted to 205 µM; the 50% inhibitory concentration (IC50) (mean speed of total motile spermatozoa, read-out: IC50 mean speed) is 197 µM.
